Laboratory results published in publication PMC6456166, “Mitochondrial type II NADH dehydrogenase of Plasmodium falciparum (PfNDH2) is dispensable in the asexual blood stages” (PLoS ONE, 2019).

Target: T1, cytochrome bc1 complex (cytochrome b, cyt b) (Plasmodium falciparum, UniProt Q02768)
T1 construct: gene MT-CYB; native bc1 complex in mitochondria-enriched preparations from D10 WT and ΔPfNDH2 parasites; with other subunits of the bc1 complex (Complex III)
T1 sequence (Q02768 1-376): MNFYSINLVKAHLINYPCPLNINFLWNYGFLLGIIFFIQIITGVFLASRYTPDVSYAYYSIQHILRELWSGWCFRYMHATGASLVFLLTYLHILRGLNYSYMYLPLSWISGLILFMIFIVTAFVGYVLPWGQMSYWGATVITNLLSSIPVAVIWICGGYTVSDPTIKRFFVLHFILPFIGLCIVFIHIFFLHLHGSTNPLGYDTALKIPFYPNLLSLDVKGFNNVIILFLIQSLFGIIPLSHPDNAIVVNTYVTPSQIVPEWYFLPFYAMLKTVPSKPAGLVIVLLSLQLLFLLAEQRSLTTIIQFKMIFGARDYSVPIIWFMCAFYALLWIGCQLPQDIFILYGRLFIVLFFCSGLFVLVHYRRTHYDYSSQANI
Assay: ubiquinol-cytochrome c reductase assay in isolated parasite mitochondria ([…] nm), dose-dependent inhibition in WT and ΔPfNDH2
Format: cell-based

Compound: CCCCCCCCCCCCc1cc(=O)c2ccccc2n1O [HDQ, 1-hydroxy-2-dodecyl-4(1H) quinolone]
- ubiquinol-cytochrome c reductase assay in isolated parasite mitochondria (550 nm): HDQ and CK-2-68 inhibited the ubiquinol-cytochrome c reductase activity in the mitochondria of ΔPfNDH2 and WT
